Measured values reported in ChEMBL document CHEMBL1201862, “PubChem BioAssay data set” (2004).
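All cell lines were grown in 96-well plates and treated with compound for 48 hours. Abbreviation: GI50, concentration required for 50% inhibition of growth.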 Activity calls are given as the source filed them. Cut-off read from the data, not from the text of the source: active = GI50 up to about 1.1 µM and inactive = higher.

Columns and labels:
Test in all cases: DTP human tumour cell line panel, 48 h
786-0 = tested on: 786-0
ACHN = tested on: ACHN
COLO 205 = tested on: COLO 205
DMS-114 = tested on: DMS-114
HCC 2998 = tested on: HCC 2998
HCT-116 = tested on: HCT-116
HOP-92 = tested on: HOP-92
IGROV-1 = tested on: IGROV-1
M14 = tested on: M14
Malme-3M = tested on: Malme-3M
RXF 393 = tested on: RXF 393
SK-MEL-2 = tested on: SK-MEL-2
SK-MEL-5 = tested on: SK-MEL-5
SR = tested on: SR
TK-10 = tested on: TK-10
MOLT-4 = tested on: MOLT-4

Q: What does the source list for Cn1c2c([N+](=O)[O-])[se]nc2c(=O)n1-c1ccc([N+](=O)[O-])cc1?
A: GI50 (786-0): 2.44 µM (inactive); GI50 (ACHN): 1.95 µM (inactive); GI50 (COLO 205): 1.67 µM (inactive); GI50 (DMS-114): 0.254 µM (active); GI50 (HCC 2998): 1.74 µM (inactive); GI50 (HCT-116): 0.887 µM (active); GI50 (HOP-92): 1.63 µM (inactive); GI50 (IGROV-1): 1.29 µM (inactive); GI50 (M14): 1.29 µM (inactive); GI50 (Malme-3M): 1.75 µM (inactive); GI50 (RXF 393): 0.665 µM (active); GI50 (SK-MEL-2): 3.34 µM (inactive); GI50 (SK-MEL-5): 4.43 µM (inactive); GI50 (SR): 0.0474 µM (active); GI50 (TK-10): 7.55 µM (inactive)

Q: With CC1=C(Oc2ccccc2)C(CCC(=O)O)c2c(O)cc(Cl)c(O)c21 (centres undefined) as the compound, how does the GI50 (786-0) read?
A: > 100 µM (inactive)

Q: And the GI50 (COLO 205)?
A: > 100 µM (inactive)

Q: What about the GI50 (DMS-114) of the same compound?
A: > 100 µM (inactive)

Q: And the GI50 (HCC 2998)?
A: > 100 µM (inactive)

Q: What about the GI50 (HCT-116) of the same compound?
A: > 100 µM (inactive)

Q: And the GI50 (HOP-92)?
A: > 100 µM (inactive)

Q: What about the GI50 (IGROV-1) of the same compound?
A: > 100 µM (inactive)

Q: And the GI50 (M14)?
A: > 100 µM (inactive)

Q: What about the GI50 (MOLT-4) of the same compound?
A: > 100 µM (inactive)

Q: And the GI50 (RXF 393)?
A: > 100 µM (inactive)

Q: What about the GI50 (SK-MEL-2) of the same compound?
A: > 100 µM (inactive)

Q: And the GI50 (SK-MEL-5)?
A: > 100 µM (inactive)

Q: What about the GI50 (SR) of the same compound?
A: > 100 µM (inactive)

Q: And the GI50 (TK-10)?
A: > 100 µM (inactive)

Q: What does the source list for COc1cc(CCc2ccc(OCCN(C)C)cc2)cc(OC)c1OC?
A: GI50 (786-0): > 100 µM (inactive); GI50 (ACHN): > 100 µM (inactive); GI50 (COLO 205): 20.3 µM (inactive); GI50 (DMS-114): 47.8 µM (inactive); GI50 (HCT-116): 60.4 µM (inactive); GI50 (HOP-92): 52.4 µM (inactive); GI50 (IGROV-1): > 100 µM (inactive); GI50 (M14): 68.4 µM (inactive); GI50 (MOLT-4): 32.6 µM (inactive); GI50 (Malme-3M): 93.3 µM (inactive); GI50 (RXF 393): 41.8 µM (inactive); GI50 (SK-MEL-5): 24.1 µM (inactive); GI50 (SR): 49.8 µM (inactive); GI50 (TK-10): 78.9 µM (inactive)

Q: Cc1cc(C)nc(NS(=O)(=O)c2ccc(Nc3c4ccccc4nc4c(C(=O)N5CCN(CCOS(C)(=O)=O)CC5)ccc(Cl)c34)cc2)n1 was tested. Which GI50 (786-0) did it give?
A: 43.7 µM (inactive)

Q: And the GI50 (ACHN)?
A: > 100 µM (inactive)

Q: What about the GI50 (COLO 205) of the same compound?
A: > 100 µM (inactive)

Q: And the GI50 (DMS-114)?
A: > 100 µM (inactive)

Q: What about the GI50 (HCC 2998) of the same compound?
A: > 100 µM (inactive)

Q: What about the GI50 (HCT-116) of the same compound?
A: > 100 µM (inactive)

Q: What about the GI50 (HOP-92) of the same compound?
A: > 100 µM (inactive)

Q: What about the GI50 (IGROV-1) of the same compound?
A: > 100 µM (inactive)

Q: What about the GI50 (M14) of the same compound?
A: 38 µM (inactive)

Q: What about the GI50 (MOLT-4) of the same compound?
A: > 100 µM (inactive)

Q: And the GI50 (Malme-3M)?
A: > 100 µM (inactive)

Q: What about the GI50 (RXF 393) of the same compound?
A: > 100 µM (inactive)

Q: And the GI50 (SK-MEL-2)?
A: > 100 µM (inactive)

Q: What about the GI50 (SK-MEL-5) of the same compound?
A: > 100 µM (inactive)

Q: And the GI50 (SR)?
A: > 100 µM (inactive)

Q: What about the GI50 (TK-10) of the same compound?
A: 54.1 µM (inactive)
